Experimental findings from patent US20250332180A1, “CANNABINOIDS AND IL-15 ACTIVATE NK CELLS” (The Regents of the University of California, priority 2022, published 2025) are described below.

The test system of series [1] is OSCSCs. To be noted: 24 hours, up to 50 μM.
Series [2] concerns OSCSCs. Nature of the series: Microscopy of morphology and viability. The class given is cell-based, human. To be noted: WIN 55,212-2, even at the lowest concentrations, 24 h. The method, then:
(§1) Chemical structure of WIN 55,212-2 (FIG. 7A). […] OSCCs and OSCSCs were treated with CDDP (50 μg/mL) and different concentrations of WIN 55,212-2 for 24 hours before the microscopic images were taken. Scale bar=50 μm (FIG. 7B).

For series [3], the system named is OSCCs. Kind of series: Microscopy of morphology and viability. The class given is cell-based, human. As for the experimental part:
as §1

The subject of a further series is IFN-γ secretion. Nature of the series: IFN-γ secretion of immune cells in humanized BLT mice (ELISA, ELISpot). It is filed as in vivo. To be noted: hu-BLT mice. The method, then: Humanized BLT mice (hu-BLT; human-bone marrow/liver/thymus) were fed with, AJ2 (5×10^9 CFU/mice, every 2 days, Oral administration), WIN 55,212-2 (2 mg/kg, every 2 days, IP) and/or IL-15 (5 μg/mice, every 2 days, IP). After 3 weeks of treatment, immune cells were collected from peripheral blood, bone marrow and spleen, and CD3+ T cells were isolated from splenocytes with EasySep™ Human CD3 positive selection kit II (StemCell Tech.). PBMCs (0.5×10^6 cells) obtained from the peripheral blood were treated with IL-2 (1000 U/ml) and/or anti-CD16 antibody (BioLegend) (3 μg/ml) for 3 days, after which the cells were counted and different numbers of E:T ratios were used for the assessment of cytotoxicity using 4-hr Chromium release assay (FIG. 1A and FIG. 1B). The percentage specific cytotoxicity was calculated using the following formula (% cytotoxicity=(Experimental cpm/spontaneous cpm)/(total cpm−spontaneous cpm)) and the lytic unit 30 (Lu30/10^6) was calculated by using the inverse of the number of effector cells needed to lyse 30% of tumor target cells×100. Killing per % NK cells was determined by dividing the total Lytic unit 30 by the percentage of NK cells in each sample (FIG. 1A and FIG. 1B). PBMCs (0.5×10^6 cells) obtained from the blood were treated with IL-2 (1000 U/ml) and/or anti-CD16 antibody (BioLegend) (3 μg/ml) for 24 hours, after which the supernatants were collected to measure IFN-g secretion using ELISA (BioLegend, San Diego) (FIG. 1C). ELISpot was used to determine the IFN-γ spots in PBMC (FIG. 1D), bone marrow (FIG. 1E), spleen (FIG. 1F) and CD3+ T cells (FIG. 1G).
Humanized BLT mice (hu-BLT; human-bone marrow/liver/thymus) were fed with, AJ2 (5×10^9 CFU/mice, every 2 days, Oral administration), WIN 55,212-2 (2 mg/kg, every 2 days, IP) and/or IL-15 (5 μg/mice, every 2 days, IP). After 3 weeks of treatment, immune cells were collected from peripheral blood, bone marrow and spleen, and CD3+ T cells were isolated from splenocytes with EasySep™ Human CD3 positive selection kit II (StemCell Tech.). PBMCs (0.5×10^6 cells) obtained from the peripheral blood were treated with IL-2 (1000 U/ml) and/or anti-CD16 antibody (BioLegend) (3 μg/ml) for 3 days, after which the cells were counted and different numbers of E:T ratios were used for the assessment of cytotoxicity using 4-hr Chromium release assay (FIG. 6A and FIG. 6B). The percentage specific cytotoxicity was calculated using the following formula (% cytotoxicity=(Experimental cpm/spontaneous cpm)/(total cpm−spontaneous cpm)) and the lytic unit 30 (Lu30/10^6) was calculated by using the inverse of the number of effector cells needed to lyse 30% of tumor target cells×100. Killing per % NK cells was determined by dividing the total Lytic unit 30 by the percentage of NK cells in each sample (FIG. 6A and FIG. 6B). PBMCs (0.5×10^6 cells) obtained from the blood were treated with IL-2 (1000 U/ml) and/or anti-CD16 antibody (BioLegend) (3 μg/ml) for 24 hours, after which the supernatants were collected to measure IFN-g secretion using ELISA (BioLegend, San Diego) (FIG. 6C). ELISpot was used to determine the IFN-γ spots in PBMC (FIG. 6D), bone marrow (FIG. 6E), spleen (FIG. 6F) and CD3+ T cells (FIG. 6G).
(An ELISA detects its analyte on a solid surface through an enzyme-linked reagent.)

Series [4] deals with PL-12 tumor cells. Nature of the series: Cell count of viable cells (Trypan Blue, light microscope). It is filed as cell-based, human. Particulars: different concentrations of WIN 55,212-2, 24-48 hours. An excerpt: The number of viable cells was counted under light microscope using Trypan Blue staining. Compiled data from three experiments performed is shown.
The number of viable cells was counted under light microscope using Trypan Blue staining (Sigma, MO, USA).

Series [5] deals with OSCSCs. Nature of the series: Cell death assay (PI staining, flow cytometry). The class given is cell-based, human. As for the experimental part: (§2) No differences between untreated tumor cells and those treated with the DMSO vehicle alone in cell count or the amount of cell death in OSCCs and OSCSCs. […] Proportion of the live cells that had lost forward and side scatter were determined indicating decreased viability of the cells. In addition, the numbers of viable cells were determined after PI staining followed by flow cytometric analysis (FIG. 2A). OSCC tumor cells were treated as in FIG. 2A and the cells were analyzed by flow cytometry to determine the proportion of the live cells that had lost forward and side scatter indicating decreased viability of the cells (FIG. 2B) and the numbers of viable OSCC tumor cells were determined after PI staining followed by flow cytometric analysis (FIG. 2C). […] PI staining was used to determine the cell death by flow cytometry. One of four representative experiment is shown in (FIG. 2D). The compiled data of paired OSCCs and OSCSCs at the same concentration of WIN 55,212-2 treatment from four experiments is shown in (FIG. 2E). Four experiments were compiled and the % cell death of tumor cells by various WIN 55-212,2 concentrations (10, 25, 50 and 100 μM) were compared to the untreated control for both OSCC (FIG. 2F) and OSCSC (FIG. 2G). […] Non-linear regression was used to fit the curve of the % cell death induced by WIN 55-212,2 in various concentrations (10, 25, 50 and 100 μM) for both OSCC and OSCSC. […] The differences were clear within each independent experiment.
(§3) PI staining was used to determine the cell death by flow cytometry. Compiled data from four independent experiments performed is shown.

For series [6], the system named is OSCCs. Nature of the series: Cell death assay (PI staining, flow cytometry). The class given is cell-based, human. Particulars: 24 hours. The method, then: as §2, §3
For series [7], the system named is PL-12 tumor cells. Kind of series: Cell death assay (PI staining, flow cytometry). It is filed as cell-based, human. Particulars: 25-100 μM, 24-48 hours.
The mark [8] stands for this setting: WIN 55,212-2 2 mg/kg IP every 2 days, 3 weeks.

Molecules are shown by their SMILES.

Take `CS(=O)(=O)O.Cc1c(C(=O)c2cccc3ccccc23)c2cccc3c2n1[C@H](CN1CCOCC1)CO3` [WIN 55,212-2, (R)-(+)-[2,3-Dihydro-5-methyl-3-(4-morpholinylmethyl)pyrrolo[1,2,3-de]-1,4-benzoxazin-6-yl]-1-naphthalenylmethanone mesylate]: in the series on OSCSCs [1], the “cell surface expression of CD44” value was “decreased”, the “cell surface expression of CD54” value is “decreased”, the “cell surface expression of MHC class I” value is given as “remained unchanged” and the “cell surface expression of PD-L1” value is reported as “decreased”. Also, in the series with OSCSCs [2], the morphology and attachment result is “became detached from the culture plates”. The morphology and viability entry with OSCCs [3] (50 μM or higher concentrations of WIN 55,212-2, 24 h) is “some of the OSCCs still remained viable but others rounded up and detached and were not viable”. In the series on OSCCs [3] (low concentrations of WIN 55,212-2, 24 h), the morphology and viability entry was “remained viable”. Also, in the series on IFN-γ secretion (setting [8]), the “IFN-γ immune-spots (ELISpot) in PBMCs” value was “augmented”, the “IFN-γ immune-spots (ELISpot) in bone marrow” value is “augmented”, the “IFN-γ immune-spots (ELISpot) in purified CD3+ T cells” value was “augmented” and the “IFN-γ immune-spots (ELISpot) in spleen” value is “augmented”. The “IFN-γ secretion (ELISA, PBMCs)” value in the series with IFN-γ secretion (every 2 days for 3 weeks, WIN 55,212-2 2 mg/kg IP, IL-15 5 μg/mice IP) is on record as “augmented IFN-γ secretion”. Besides, in the series on PL-12 tumor cells [4], the “decreased numbers of viable cells” value is 50-70%. Further, the “amounts of cell death in OSCSCs compared with those induced by CDDP” value in the series on OSCSCs [5] (25-100 μM) is reported as “either similar or higher”. In the series with OSCSCs [5] (all concentrations tested, 24 hours), the “cell death (PI staining) compared with OSCCs” value is “higher cell death”. The “cell death (PI staining)” value in the series with OSCCs [6] (75 and 100 μM) is given as “up to 10%”. Moreover, the “forward scatter/side scatter (size of cells, early apoptosis)” value in the series with OSCCs [6] (different concentrations) is “significant dose dependent decrease”. In the series on PL-12 tumor cells [7], the “percentages of dead cells (PI staining)” value is recorded as “up to 20%”.
